Source: US7851637B2, “Compounds and methods for inhibiting the interaction of BCL proteins with binding partners” (Infinity Pharmaceuticals, Inc., priority 2004, dated 2010)
Like-named read-outs stand apart in the source and are kept apart here.

Columns and labels:
Bcl-xL = Bcl-xL (Homo sapiens, UniProt Q07817); test: Bcl-xL binding affinity analysis (fluorescence polarization binding assay); set-up: scale not given here
Method in brief: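 In vitro fluorescence polarization binding assay measuring compound binding to human Bcl-xL.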

[1] = test system: Human Pancreatic Cancer Cell Line Panc1; test: Cell death assay (propidium iodide/Hoechst) in Panc1 cells with or without camptothecin; type: cell-based; details: 72 hours, % cell death by propidium iodide/Hoechst
Method: (§1) When RL-cells are exposed to isoxazolidine compounds of the present invention, the inhibitors show a dose-dependent cell-killing in the Alamar blue cytoxicity assay with IC50 values of from about 100 μM to about 1 μM (See Examples). When Panc1 cells are exposed to the isoxazolidine compounds of the present invention in combination with camptothecin, the inhibitors show a synergistic dose-dependent cell killing in the propidium iodide exclusion cell survival assay with IC50 values of from about 100 μM to about 1 μM (See Examples).
• 1) Compounds were serially diluted in DMSO from a 9 mM stock to a final concentration of 0.004 mM in a 96 well plate. • 2) Assay plates were prepared by diluting compounds 310 fold into 150 ul of medium containing 10,000 cells/well, with or without 3 uM Camptothecin, resulting in a final DMSO concentration of 0.3% and a compound concentration range from 29 uM to […] for each compound. • 3) Assay plates were incubated at 37 C, 5% CO2 for 72 hours. • 4) After 72 hours, propidium iodide and Hoechst dye were added to each well according to manufacturer's instruction. • 5) Plates were imaged on a fluorescence microscope at wavelengths Ex560/Em650 (Propidium iodide) and Ex360/Em465 (Hoechst) • 6) MetaMorph imaging software was used to determine % cell death by dividing the number of propidium iodide stained cells (dead cells) by the number of Hoechst stained cells (all cells), multipled by 100, in each field.
Panc1 invitro cellular data is presented below for various compounds of the invention.

Bcl-2 = Bcl-2 (Homo sapiens, UniProt P10415); test: Bcl-2 binding affinity analysis (fluorescence polarization binding assay)
Chain of Bcl-2 (P10415 whole entry): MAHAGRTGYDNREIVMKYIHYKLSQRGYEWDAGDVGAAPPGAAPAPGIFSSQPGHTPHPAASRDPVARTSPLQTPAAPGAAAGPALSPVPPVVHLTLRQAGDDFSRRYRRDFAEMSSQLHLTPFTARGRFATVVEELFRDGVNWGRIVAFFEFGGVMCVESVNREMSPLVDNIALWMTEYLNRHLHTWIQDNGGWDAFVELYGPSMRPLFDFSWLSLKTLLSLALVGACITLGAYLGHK
Method in brief: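 Binding to human Bcl-2 quantified in vitro by a fluorescence polarization assay.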

[2] = test system: RL Human Follicular Lymphoma Cell Line; test: Alamar blue cytotoxicity assay in RL cells; type: cell-based; details: Homo sapiens, 72 h incubation, read-out: Bcl RL Alamar Blue IC50
Method: as §1
• 1) Using 96 well plates, compounds were serially diluted in DMSO from 9 mM to 4 uM • 2) Assay plates were prepared by diluting samples 310 fold into 150 ul of medium containing 30,000 cells/well resulting in a final DMSO concentration of 0.3% and a concentration range from 29 uM to 0.013 uM for each compound. • 3) Plates were incubated at 37 C and 5% CO2 for 72 h • 4) After 72 h, Alamar blue reagent was added to each well and plates read according to manufacturer's instructions
In vitro cytotoxicity data for RL cells is presented below for various compounds of the invention.

[3] = Homo sapiens, PANC-1, without camptothecin, read-out: Panc1 − Cpt IC50
[4] = with 3 uM Camptothecin, read-out: Panc1 + Cpt IC50

Chain of Bcl-xL (Q07817 whole entry): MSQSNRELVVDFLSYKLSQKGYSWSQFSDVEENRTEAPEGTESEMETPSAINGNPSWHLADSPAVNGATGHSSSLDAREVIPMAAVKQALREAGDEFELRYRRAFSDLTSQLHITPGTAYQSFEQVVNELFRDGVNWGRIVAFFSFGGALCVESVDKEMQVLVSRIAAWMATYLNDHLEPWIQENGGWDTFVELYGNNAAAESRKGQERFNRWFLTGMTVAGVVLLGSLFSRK

| SMILES | Bcl-XL binding affinity Ki (Bcl-xL) | IC50 [1, 3] | IC50 [1, 4] | Ki (Bcl-2) | IC50 [2] |
| --- | --- | --- | --- | --- | --- |
| CC(O)C1C(CO)ON(Cc2cccc(CN(Cc3ccccc3)C(Cc3ccccc3)CN(C)C)c2)C1C(=O)NC1CC2CC(C1C)C2(C)C (stereo not shown) [Compound 423] | ♯ | > 2.5 µM | > 2.5 µM | < 0.8 µM |  |
| CC(O)C1C(CO)ON(Cc2cccc(C(=O)NC(CC3CCCCC3)CN(C)C)c2)C1C(=O)NC1CC2CC(C1C)C2(C)C (stereo not shown) [Compound 501] | ♯ | 1.8 to 2.5 µM | 1.3 to 1.8 µM | < 0.8 µM |  |
| CC(O)C1C(CO)ON(Cc2cccc(CNC(CN(C)C)C3CCCCC3)c2)C1C(=O)NC1CC2CC(C1C)C2(C)C (stereo not shown) [Compound 443] | ♯ | > 2.5 µM | > 2.5 µM | < 0.8 µM |  |
| CCN1CCCC1CN(Cc1ccccc1)Cc1cccc(CN2OC(CO)C(C(C)O)C2C(=O)NC2CC3CC(C2C)C3(C)C)c1 (stereo not shown) [Compound 426] | ♯ | > 2.5 µM | > 2.5 µM | < 0.8 µM |  |
| CC(O)C1C(CO)ON(Cc2cccc(CN(CCN3CCOCC3)Cc3ccccc3)c2)C1C(=O)NC1CC2CC(C1C)C2(C)C (stereo not shown) [Compound 434] | ♯ | > 2.5 µM | > 2.5 µM | < 0.8 µM |  |
| CC(C)CC(CN(C)C)N(Cc1cccc(CN2OC(CO)C(C(C)O)C2C(=O)NC2CC3CC(C2C)C3(C)C)c1)Cc1c(F)cccc1Cl (stereo not shown) [Compound 307] | ♯ | > 2.5 µM | > 2.5 µM | < 0.8 µM |  |
| C[C@@H]1[C@@H](NC(=O)[C@@H]2C([C@H](C)O)[C@H](CO)ON2Cc2cccc(CN(Cc3ccccc3Br)[C@H](CN(C)C)C(C)(C)C)c2)C[C@H]2C[C@@H]1C2(C)C (stereo partly shown) [Compound 422] | ♯ | > 2.5 µM | 1.3 to 1.8 µM | < 0.8 µM |  |
| COc1cccc(F)c1CN(Cc1cccc(CN2OC(CO)C(C(C)O)C2C(=O)NC2CC3CC(C2C)C3(C)C)c1)C(CC(C)C)CN(C)C (stereo not shown) [Compound 305] | ♯ | 1.3 to 1.8 µM | < 1.3 µM | < 0.8 µM |  |
| COc1c(CN2O[C@@H](CO)[C@@H]([C@H](C)O)[C@H]2C(=O)N[C@H]2C[C@H]3C[C@@H]([C@@H]2C)C3(C)C)cccc1-c1cccc(C(=O)N[C@H](CC2CCCCC2)CN(C)C)c1 [Compound 489] | ♯ | > 2.5 µM | 1.8 to 2.5 µM | < 0.8 µM |  |
| COc1c(CN2O[C@@H](CO)[C@@H]([C@H](C)O)[C@H]2C(=O)N[C@H]2C[C@H]3C[C@@H]([C@@H]2C)C3(C)C)cccc1-c1cccc(C(=O)N[C@H](CN(C)C)CC(C)(C)C)c1 [Compound 479] | ♯ | 1.8 to 2.5 µM | 1.3 to 1.8 µM | < 0.8 µM |  |
| COC(=O)CCNC(=O)c1cccc(-c2cccc(CN3O[C@@H](CO)[C@@H]([C@H](C)O)[C@H]3C(=O)N[C@H]3C[C@H]4C[C@@H]([C@@H]3C)C4(C)C)c2)c1 [Compound 149] | ♯ | > 2.5 µM | 1.8 to 2.5 µM | < 0.8 µM |  |
| CC(C)CC(CN(C)C)N(Cc1cccc(CN2OC(CO)C(C(C)O)C2C(=O)NC2CC3CC(C2C)C3(C)C)c1)Cc1ccccc1I (stereo not shown) [Compound 318] | ♯ | > 2.5 µM | > 2.5 µM | < 0.8 µM |  |
| CC(C)CC(CN(C)C)N(Cc1cccc(CN2OC(CO)C(C(C)O)C2C(=O)NC2CC3CC(C2C)C3(C)C)c1)CC1CCCCC1 (stereo not shown) [Compound 303] | ♯ | > 2.5 µM | > 2.5 µM | < 0.8 µM |  |
| CC(O)C1C(CO)ON(Cc2cccc(CNC(CN(C)C)c3ccccc3)c2)C1C(=O)NC1CC2CC(C1C)C2(C)C (stereo not shown) [Compound 452] | ♯ | > 2.5 µM | > 2.5 µM | < 0.8 µM |  |
| CC(C)C[C@@H](CN(C)C)N(Cc1cccc(CN2O[C@@H](CO)C([C@H](C)O)[C@H]2C(=O)N[C@H]2C[C@H]3C[C@@H]([C@@H]2C)C3(C)C)c1)Cc1c(O)cccc1F (stereo partly shown) [Compound 306] | ♯ | > 2.5 µM | 1.3 to 1.8 µM | < 0.8 µM |  |
| COC(=O)CCNC(=O)c1cccc(-c2cccc(CN3O[C@@H](CO)[C@@H]([C@H](C)O)[C@H]3C(=O)N[C@H]3C[C@H]4C[C@@H]([C@@H]3C)C4(C)C)c2)c1 [Compound 190] |  |  |  |  | 2 to 5 µM |
